# How the values were obtained:
# [1] = tested on: hepatocellular carcinoma HepG2 cell line; test: MTT cytotoxicity assay, HepG2; format: cell-based, human; details: Homo sapiens, HepG2, 24 h, 24 h treatment, mean ± SE
# Method: (§1) All the newly synthesized analogs were evaluated for their in vitro cytotoxicity against the hepatocellular carcinoma HepG2 cell line. Podo was utilized as a reference control in the current study. […] The N-phenyl triazinone derivative 9 was further investigated for its cytotoxic effects against normal liver cell line HL-7702.
# (§2) MTT colorimetric assay was carried out to investigate the impact of the newly synthesized compounds 2–11 on hepatocellular carcinoma (HepG2) and normal liver cell line (HL-7702) cell lines. See Section 3.3.1 in Supplementary Material.
# (§3) 3.3.1. Cytotoxic activity evaluation
# To measure the cytotoxic activity of the synthesized derivatives 2a-11 in hepatocel-lular carcinoma (HepG2) cell line (ATCC Cat No. HB-8065) as well as normal human liver cell line HL-7702 (ATCC Cat. No. 77402), cell viability assay was assessed using MTT assay method. Cells at density of 1 x 104 were seeded in a 96-well plate at 37 °C for 24 h under 5% CO2. After incubation, the cells were treated with different concentrations of the test compounds 2a-11 and incubated for 24 h, then 20 μl of MTT solution at 5 mg/mL was applied and incubated for 4 h at 37 °C. Dimethyl sulphoxide (DMSO) in volume of 100 µl was added to each well to dissolve the purple formazan that had formed. The color inten-sity of the formazan product, which represents the growth condition of the cells, is quan-tified by using an ELISA plate reader (EXL 800, USA) at 570 nm absorbance. The experi-mental conditions were carried out with at least three replicates, and the experiments were repeated at least three times.
# 3.3.2. Tubulin inhibitions Assay
# (§4) Compounds 9, 10 and 11 were evaluated for their tubulin inhibitory activity levels according to the manufacturer’s instructions using # abcam Human Beta-tubulin simplestep […]
# 3.3.3. Cell cycle analysis of compound 9
# Cell cycle analysis in HepG2 cells was investigated using fluorescent Annexin V-FITC/ PI detection kit (BioVision EZCellTM Cell Cycle Analysis Kit Catalog #K920) by flow cytometry assay. HepG2 cells at a density of 2 × 10^5 per well were harvested and washed twice in PBS. After that, the cells were incubated at 37 °C and 5% CO2. […] Afterward, medium was stained with DNA flu-orochrome PI for 15 min at 37 °C. The samples were immediately analyzed using Facs Calibur flow cytometer (Becton and Dickinson, Heidelberg, Germany).
# 3.3.4. Apoptosis assay for compound 9
# Apoptosis in HepG2 cells was investigated using fluorescent Annexin V-FITC/ PI de-tection kit (BioVision Annexin V-FITC Apoptosis Detection Kit, Catalog #: K101) by flow cy-tometry assay. HepG2 cells at a density of 2 × 10^5 per well were treated with compound 9 at its IC50 (μM) for 48 h, then the cells were harvested and stained with Annexin V-FITC/ PI dye for 15 min in the dark at 37 °C. The samples were immediately analyzed using FACS Calibur flow cytometer (Becton and Dickinson, Heidelberg, Germany).
# 3.3.5. Measurement of mitochondrial membrane potential (MMP) for compound 9 MMP was measured by FACS analysis using abcam ab113852TMRE Mitochondrial Membrane Potential Assay Kit with DiOC2(3) staining using MitoProbe™ DiOC2(3) Assay Kit for Flow Cytometry (M34150). After treatment with compound 9 at its IC50 concentra-tion, cells were stained with DiOC2(3) dye for 30 min in the incubator, then harvested and washed with PBS. DiOC2(3)-stained cells were represented with Annexin binding buffer and incubated at 37 °C for 15 min. The samples were immediately analyzed using cell […]
# 3.3.6. Effect on p53, Bax and Bcl-2 p53, Bax and Bcl2 enzyme activities in HepG2 cells were detected in the presence of com-pound 9 at its IC50 concentration (μM). The levels of the tumor suppressor gene p53, apoptotic markers Bax as well as the anti-apoptotic marker Bcl-2 were assessed using p53 ELISA kit, Human Bax ELISA kit and Bcl-2 Elisa kit. […]
# [2] = tested on: normal liver cell line HL-7702; test: MTT cytotoxicity assay, normal liver cells; format: cell-based; details: Homo sapiens, L02, 24 h treatment, mean ± SE
# Method: as §1, §2, §3
# (§5) To measure the cytotoxic activity of the synthesized derivatives 2a-11 in hepatocel-lular carcinoma (HepG2) cell line (ATCC Cat No. HB-8065) as well as normal human liver cell line HL-7702 (ATCC Cat. No. 77402), cell viability assay was assessed using MTT assay method. Cells at density of 1 x 104 were seeded in a 96-well plate at 37 °C for 24 h under 5% CO2. […] The color inten-sity of the formazan product, which represents the growth condition of the cells, is quan-tified by using an ELISA plate reader (EXL 800, USA) at 570 nm absorbance. […]
# as §4
# (§6) 3.3.5. […] The samples were immediately analyzed using cell […]
# HepG2 cells [3] = test: Annexin V-FITC/PI dual staining apoptosis assay; format: cell-based, human
# Method: The extent of apoptosis induced by compound 9 in HepG2 cells was quantified by the FACS analysis. Cells were harvested after 48 h and analyzed for apoptosis percentage by flow cytometry.
# […] analysis in HepG2 cells was carried out by FACS analysis according to the manufacturer’s directions. See Section 3.3.4 in Supplementary Material.
# Figure 4 Compound 9 induces apoptosis in HepG2 cells. (A) HepG2 cells were treated with 1.38 μM of compound 9 for 48 h. Cell apoptosis was quantized by Annexin V-FITC/PI dual staining assay using image-based cytometry. (B) The quantification of HepG2 cell apoptosis.
# as §3, §5, §4
# Cell cycle analysis in HepG2 cells was investigated using fluorescent Annexin V-FITC/ PI detection kit (BioVision EZCellTM Cell Cycle Analysis Kit Catalog #K920) by flow cytometry assay. […] The samples were immediately analyzed using Facs Calibur flow cytometer (Becton and Dickinson, Heidelberg, Germany). […]
# Apoptosis in HepG2 cells was investigated using fluorescent Annexin V-FITC/ PI de-tection kit (BioVision Annexin V-FITC Apoptosis Detection Kit, Catalog #: K101) by flow cy-tometry assay. […] The samples were immediately analyzed using FACS Calibur flow cytometer (Becton and Dickinson, Heidelberg, Germany).
# as §6
# HepG2 cells [4] = test: Mitochondrial membrane potential by flow cytometry; format: cell-based, human; details: HepG2, 1.38 μM (IC50), 48 h
# Method: Mitochondrial Membrane Potential (MMP) plays a vital role in the initiation of the apoptosis process. Loss of MMP is characteristic of an early stage of apoptosis.
# MMP was measured by flow cytometry analysis in HepG2 cells according to the manufacturer’s directions. See Section 3.3.5 in Supplementary Material.
# Figure 5 Compound 9 promotes MMP dissipation in HepG2 cells. (A) HepG2 cells were treated with 1.38 μM of compound 9 for 48 h. MMP was quantized using image-based flow cytometry. (B) The quantification of MMP in HepG2 cells after treatment with compound 9 at its IC50 concentration (μM). […]
# as §5, with “method.” for “method. Cells at density of 1 x 104 were seeded in a 96-well plate at 37 °C for 24 h under 5% CO2.”
# as §4
# [5] = HepG2, IC50 concentration, 48 h
smiles,measurement,setting,value
"COc1ccc(C2=N/C(=C\c3cc(OC)c(OC)c(OC)c3)C(=O)NN2c2ccccc2)cc1OC [Compound 9, (Z)-3-(3,4-Dimethoxyphenyl)-2-Phenyl-5-(3,4,5-Trimethoxybenzylidene)-1,2-Dihydro-1,2,4-Triazin-6(5H)-one]",IC50,[1],1.38 ± 0.15 µM
same,IC50,[2],29.1 ± 2.03 µM
same,increase in Annexin-V-positive cells compared with untreated control,HepG2 cells [3]; HepG2,~18 fold
same,increase in percentage of early apoptosis compared with untreated control,HepG2 cells [3]; [5],16.63 fold
same,increase in percentage of late apoptosis compared with untreated control,HepG2 cells [3]; [5],60.11 fold
same,decrease in level of MMP compared with negative HepG2 cells,HepG2 cells [4],3.12 fold
same,melting point,,248 to 250 °C
